Reference: US8216580B2, “Sulfatases and methods of use thereof” (The Regents of the University of California, priority 2000, dated 2012)

Legend:
[1] = tested on: chick chorioallantoic membrane (CAM); assay: Chick chorioallantoic membrane (CAM) angiogenesis assay; format: in vivo; conditions: 5×10^6 stably transfected CHO cells on CAM of 9 day embryos, 72 hrs; compared to CHO-Sulf-1 or empty vector clone
Description: Sulf-2 functions as a heparan sulfate degrading enzyme (HSDE) during tumor angiogenesis by mobilizing angiogenic factors from sequestration with HSPGs We employed the chick chorioallantoic membrane (CAM) assay, a standard angiogenesis assay. CHO cells were stably transfected with HSulf-1, HSulf-2, or the empty vector and clones were isolated. Single clones of each type were implanted on the surface of the CAM of 9 day embryos. After 72 hrs, the number of new blood vessel branches was determined under a dissecting scope.
FIG. 17. Pro-angiogenic activity of HSulf-2. 5×10^6 CHO cells were implanted on the CAM of 9-day chick embryos. The CHO cells were clones that were stably transfected with either the empty vector (clone V1), HSulf-1 (clone 9) or HSulf-2 (clone 18). After 72 hrs of further incubation, the number of blood vessel branches was counted under a dissecting microscope. 6 eggs were treated with each type of CHO cell. Means and standard errors of the means are indicated.

[2] = tested on: Wnt signaling; assay: TCF-luciferase (TOPFlash/FOPFlash) Wnt reporter assay in HEK 293 cells co-cultured with Wnt-expressing 3T3 fibroblasts; format: cell-based, human; conditions: stably transfected HEK 293 cells co-cultured with Wnt1 or Wnt4 expressing 3T3 fibroblasts
Description: Cells were plated in 24 well plates and transfected with either 0.3 μg TOPFlash or FOPFlash and 0.01 μg Renilla control plasmid (Promega) using Fugene (Roche) according to the manufacturer's procedure. After 48 hours cells were lysed and analyzed utilizing the Dual Luciferase Reporter Assay system (Promega). Luciferase activity was normalized to control Renilla activity.
To assay HSulf influence on Wnt signaling in HEK 293 cells, HEK 293 cells were transfected with TOP/FOPFlash and Renilla control plasmid. 24 hours later the medium was changed, and Wnt1-transfected 3T3 […] fibroblasts were added. 24 hours later, Luciferase activity was measured, as described above.
Dhoot et al. (2001) supra; Ai et al. (2003) J Cell Biol 162:341-351. In order to determine if the human Sulfs affect Wnt signaling, the effect of HSulf-1 and -2, when overexpressed in a heterologous expression system on Wnt signaling, was analyzed. For this purpose, HEK 293 cells stably transfected with either HSulf-1 (HS1) or HSulf-2 (HS2) were co-cultured with Wnt1 or Wnt4 expressing 3T3 fibroblasts. Wnt activity was measured by utilizing a quantitative TCF-luciferase reporter gene (FOPFlash/TOPFlash system). van de Wetering et al. (1997) Cell 88:789-799.

HSulf-2: Human SULF2, an 870 amino acid sulfatase protein, SEQ ID NO:06; expressed with C-terminal Myc-His tag
number of new blood vessel branches [1]: dramatic response
increase of Wnt activity [2]: two-fold
